Experimental data published in patent publication US20250228239A1, “MOLECULES HAVING PESTICIDAL UTILITY, AND INTERMEDIATES, COMPOSITIONS, AND PROCESSES, RELATED THERETO” (priority 2024, published 2025).
Read-outs that look alike come from different tables or passages of the source.

Columns and labels:
[1] = test system: Beet Armyworm (Spodoptera exigua, LAPHEG); test: Bioassays on Beet Armyworm (BAW), 128-well diet tray assay; assay type: in vivo; details: Spodoptera exigua, read-out: BAW
Summary of the method: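 Mortality of second-instar larvae (1–5/well) on artificial diet treated with 50 μg/cm^2 compound, read after 5–7 days at 25° C.; values are means of eight wells.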

[2] = test system: Cabbage Looper (Trichoplusia ni, TRIPNI); test: Bioassays on Cabbage Looper (CL), 128-well diet tray assay; assay type: in vivo; details: Trichoplusia ni, read-out: CL
Summary of the method: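 Activity is mean percent mortality over eight wells of second-instar larvae exposed to diet treated at 50 μg/cm^2 for 5–7 days at 25° C.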

[3] = Table ABC: Biological Results, species BAW
[4] = Table ABC: Biological Results, species CL

SMILES | pest or weed control at 50 µg/cm2 [1, 3] [%] | pest or weed control at 50 µg/cm2 [2, 4] [%] | pest or weed control at 50 µg/cm2 ([1]; Beet Armyworm, rating class) [%] | pest or weed control at 50 µg/cm2 ([2]; Cabbage Looper, rating class) [%]
O=C(Nc1c(F)ccc(NC(=O)C(F)(F)F)c1F)c1cc(NC(=O)[C@H]2[C@H](c3cc(Cl)c(Cl)c(Cl)c3)C2(Cl)Cl)cc(F)c1Cl [F1342, 2-Chloro-5-((1R,3R)-2,2-dichloro-3-(3,4,5-trichlorophenyl)cyclopropane-1-carboxamido)-N-(2,6-difluoro-3-(2,2,2-trifluoroacetamido)phenyl)-3-fluorobenzamide] | 50 to 100 | 50 to 100 | – | –
O=C(Nc1c(F)ccc(NC(=O)C(F)F)c1F)c1cc(NC(=O)[C@H]2[C@H](c3cc(Cl)c(Cl)c(Cl)c3)C2(Cl)Cl)cc(F)c1Cl [F1343, 2-Chloro-5-((1R,3R)-2,2-dichloro-3-(3,4,5-trichlorophenyl)cyclopropane-1-carboxamido)-N-(3-(2,2-difluoroacetamido)-2,6-difluorophenyl)-3-fluorobenzamide] | 50 to 100 | 50 to 100 | – | –
O=C(Nc1c(F)ccc(NC(=O)C(F)(F)F)c1F)c1cc(NC(=O)[C@H]2[C@H](c3ccc(Cl)c(Cl)c3)C2(Cl)Cl)cc(F)c1Cl [F1344, 2-Chloro-5-((1R,3R)-2,2-dichloro-3-(3,4-dichlorophenyl)cyclopropane-1-carboxamido)-N-(2,6-difluoro-3-(2,2,2-trifluoroacetamido)phenyl)-3-fluorobenzamide] | 50 to 100 | 50 to 100 | – | –
O=C(Nc1c(F)ccc(NC(=O)C(F)F)c1F)c1cc(NC(=O)[C@H]2[C@H](c3ccc(Cl)c(Cl)c3)C2(Cl)Cl)cc(F)c1Cl [F1345, 2-Chloro-5-((1R,3R)-2,2-dichloro-3-(3,4-dichlorophenyl)cyclopropane-1-carboxamido)-N-(3-(2,2-difluoroacetamido)-2,6-difluorophenyl)-3-fluorobenzamide] | 50 to 100 | 50 to 100 | – | –
O=C(Nc1c(F)ccc(NC(=O)C(F)(F)F)c1F)c1cc(NC(=O)[C@H]2[C@H](c3ccc(F)c(C(F)(F)F)c3)C2(Cl)Cl)cc(F)c1Cl [F1346, 2-Chloro-5-((1R,3R)-2,2-dichloro-3-(4-fluoro-3-(trifluoromethyl)phenyl)cyclopropane-1-carboxamido)-N-(2,6-difluoro-3-(2,2,2-trifluoroacetamido)phenyl)-3-fluorobenzamide] | 50 to 100 | 50 to 100 | – | –
O=C(Nc1c(F)ccc(NC(=O)C(F)F)c1F)c1cc(NC(=O)[C@H]2[C@H](c3ccc(F)c(C(F)(F)F)c3)C2(Cl)Cl)cc(F)c1Cl [F1347, 2-Chloro-5-((1R,3R)-2,2-dichloro-3-(4-fluoro-3-(trifluoromethyl)phenyl)cyclopropane-1-carboxamido)-N-(3-(2,2-difluoroacetamido)-2,6-difluorophenyl)-3-fluorobenzamide] | 50 to 100 | 50 to 100 | – | –
O=C(Nc1ccc(F)c(NS(=O)(=O)CCC(F)(F)F)c1F)c1cc(NC(=O)[C@H]2[C@H](c3ccc(F)c(C(F)(F)F)c3)C2(Cl)Cl)ccc1Cl [F1350, 2-Chloro-5-((1R,3R)-2,2-dichloro-3-(4-fluoro-3-(trifluoromethyl)phenyl)cyclopropane-1-carboxamido)-N-(2,4-difluoro-3-((3,3,3-trifluoropropyl)sulfonamido)phenyl)benzamide] | 50 to 100 | 50 to 100 | – | –
O=C(Nc1c(F)ccc(NC(=O)C(F)(F)Br)c1F)c1cc(NC(=O)[C@H]2[C@H](c3ccc(F)c(C(F)(F)F)c3)C2(Cl)Cl)cc(F)c1Cl [F1356, N-(3-(2-Bromo-2,2-difluoroacetamido)-2,6-difluorophenyl)-2-chloro-5-((1R,3R)-2,2-dichloro-3-(4-fluoro-3-(trifluoromethyl)phenyl)cyclopropane-1-carboxamido)-3-fluorobenzamide] | 50 to 100 | 50 to 100 | – | –
O=C(Nc1ccc(F)c(NS(=O)(=O)CC2CC2(Cl)Cl)c1F)c1cc(NC(=O)[C@H]2[C@H](c3ccc(F)c(C(F)(F)F)c3)C2(Cl)Cl)ccc1Cl (stereo partly drawn) [F1361, 2-Chloro-5-((1R,3R)-2,2-dichloro-3-(4-fluoro-3-(trifluoromethyl)phenyl)cyclopropane-1-carboxamido)-N-(3-(((2,2-dichlorocyclopropyl)methyl)sulfonamido)-2,4-difluorophenyl)benzamide] | 50 to 100 | 50 to 100 | – | –
Nc1cc(NC(=O)c2cc(NC(=O)[C@H]3[C@H](c4ccc(F)c(Cl)c4)C3(Cl)Cl)cc(F)c2Cl)c(F)cc1F [F1395, N-(5-Amino-2,4-difluorophenyl)-2-chloro-5-((1R,3R)-2,2-dichloro-3-(3-chloro-4-fluorophenyl)cyclopropane-1-carboxamido)-3-fluorobenzamide] | – | – | 50 to 100 | 50 to 100
Nc1cc(NC(=O)c2cc(NC(=O)[C@H]3[C@H](c4ccc(Cl)c(Cl)c4)C3(Cl)Cl)cc(F)c2Cl)c(F)cc1F [F1396, N-(5-Amino-2,4-difluorophenyl)-2-chloro-5-((1R,3R)-2,2-dichloro-3-(3,4-dichlorophenyl)cyclopropane-1-carboxamido)-3-fluorobenzamide] | – | – | 50 to 100 | 50 to 100
Nc1cc(NC(=O)c2cc(NC(=O)[C@H]3[C@H](c4cc(Cl)c(Cl)c(Cl)c4)C3(Cl)Cl)cc(F)c2Cl)c(F)cc1F [F1397, N-(5-Amino-2,4-difluorophenyl)-2-chloro-5-((1R,3R)-2,2-dichloro-3-(3,4,5-trichlorophenyl)cyclopropane-1-carboxamido)-3-fluorobenzamide] | – | – | 50 to 100 | 50 to 100
Nc1cc(NC(=O)c2cc(NC(=O)[C@H]3[C@H](c4ccc(F)c(C(F)(F)F)c4)C3(Cl)Cl)cc(F)c2Cl)c(F)cc1F [F1398, N-(5-Amino-2,4-difluorophenyl)-2-chloro-5-((1R,3R)-2,2-dichloro-3-(4-fluoro-3-(trifluoromethyl)phenyl)cyclopropane-1-carboxamido)-3-fluorobenzamide] | – | – | 50 to 100 | 50 to 100
Nc1cc(NC(=O)c2cc(NC(=O)[C@H]3[C@H](c4cc(Cl)cc(Cl)c4)C3(Cl)Cl)cc(F)c2Cl)c(F)cc1F [F1399, N-(5-Amino-2,4-difluorophenyl)-2-chloro-5-((1R,3R)-2,2-dichloro-3-(3,5-dichlorophenyl)cyclopropane-1-carboxamido)-3-fluorobenzamide] | – | – | 50 to 100 | 50 to 100
O=C(Nc1cc(NC(=O)C(F)F)c(F)cc1F)c1cc(NC(=O)[C@H]2[C@H](c3ccc(F)c(Cl)c3)C2(Cl)Cl)cc(F)c1Cl [F1400, 2-Chloro-5-((1R,3R)-2,2-dichloro-3-(3-chloro-4-fluorophenyl)cyclopropane-1-carboxamido)-N-(5-(2,2-difluoroacetamido)-2,4-difluorophenyl)-3-fluorobenzamide] | – | – | 50 to 100 | 50 to 100
O=C(Nc1cc(NC(=O)C(F)(F)F)c(F)cc1F)c1cc(NC(=O)[C@H]2[C@H](c3ccc(F)c(Cl)c3)C2(Cl)Cl)cc(F)c1Cl [F1401, 2-Chloro-5-((1R,3R)-2,2-dichloro-3-(3-chloro-4-fluorophenyl)cyclopropane-1-carboxamido)-N-(2,4-difluoro-5-(2,2,2-trifluoroacetamido)phenyl)-3-fluorobenzamide] | – | – | 50 to 100 | 50 to 100
O=C(Nc1cc(NC(=O)C(F)F)c(F)cc1F)c1cc(NC(=O)[C@H]2[C@H](c3ccc(Cl)c(Cl)c3)C2(Cl)Cl)cc(F)c1Cl [F1402, 2-Chloro-5-((1R,3R)-2,2-dichloro-3-(3,4-dichlorophenyl)cyclopropane-1-carboxamido)-N-(5-(2,2-difluoroacetamido)-2,4-difluorophenyl)-3-fluorobenzamide] | – | – | 50 to 100 | 50 to 100
O=C(Nc1cc(NC(=O)C(F)(F)F)c(F)cc1F)c1cc(NC(=O)[C@H]2[C@H](c3ccc(Cl)c(Cl)c3)C2(Cl)Cl)cc(F)c1Cl [F1403, 2-Chloro-5-((1R,3R)-2,2-dichloro-3-(3,4-dichlorophenyl)cyclopropane-1-carboxamido)-N-(2,4-difluoro-5-(2,2,2-trifluoroacetamido)phenyl)-3-fluorobenzamide] | – | – | 50 to 100 | 50 to 100
O=C(Nc1cc(NC(=O)C(F)F)c(F)cc1F)c1cc(NC(=O)[C@H]2[C@H](c3cc(Cl)c(Cl)c(Cl)c3)C2(Cl)Cl)cc(F)c1Cl [F1404, 2-Chloro-5-((1R,3R)-2,2-dichloro-3-(3,4,5-trichlorophenyl)cyclopropane-1-carboxamido)-N-(5-(2,2-difluoroacetamido)-2,4-difluorophenyl)-3-fluorobenzamide] | – | – | 50 to 100 | 50 to 100
O=C(Nc1cc(NC(=O)C(F)(F)F)c(F)cc1F)c1cc(NC(=O)[C@H]2[C@H](c3cc(Cl)c(Cl)c(Cl)c3)C2(Cl)Cl)cc(F)c1Cl [F1405, 2-Chloro-5-((1R,3R)-2,2-dichloro-3-(3,4,5-trichlorophenyl)cyclopropane-1-carboxamido)-N-(2,4-difluoro-5-(2,2,2-trifluoroacetamido)phenyl)-3-fluorobenzamide] | – | – | 50 to 100 | 50 to 100
O=C(Nc1cc(NC(=O)C(F)F)c(F)cc1F)c1cc(NC(=O)[C@H]2[C@H](c3ccc(F)c(C(F)(F)F)c3)C2(Cl)Cl)cc(F)c1Cl [F1406, 2-Chloro-5-((1R,3R)-2,2-dichloro-3-(4-fluoro-3-(trifluoromethyl)phenyl)cyclopropane-1-carboxamido)-N-(5-(2,2-difluoroacetamido)-2,4-difluorophenyl)-3-fluorobenzamide] | – | – | 50 to 100 | 50 to 100
